Experimental data published in patent US10710987B2, “Hydrochloride salt form for EZH2 inhibition” (Epizyme, Inc., priority 2013, dated 2020).

Test: Dynamic vapor sorption (DVS), hygroscopicity
Assay type: physicochemical
Settings: for hygroscopicity (DVS, in words): FIGS. 5 and 6
Procedure: Dynamic Vapor Sorption DVS was measured on a VTI Model SGA-100 system. Measurement method: The relative humidity (RH) was changed in a controlled fashion, in 5% steps from 5.0% to 95.0% then back to 5.0% using the gravimetric vapor sorption system, and the weight percentage change (wt %) of the sample at each stage was measured.

Question: For `CCN(c1cc(-c2ccc(CN3CCOCC3)cc2)cc(C(=O)NCc2c(C)cc(C)[nH]c2=O)c1C)C1CCOCC1` [Polymorph A, 4-((3′-(((4,6-Dimethyl-2-oxo-1,2-dihydropyridin-3-yl)methyl)carbamoyl)-5′-(ethyl(tetrahydro-2H-pyran-4-yl)amino)-4′-methyl-[1,1′-biphenyl]-4-yl)methyl)morpholin-4-ium chloride], which “hygroscopicity (DVS, in words)” value is on record?
Answer: some hygroscopicity

Question: And the “weight gain (DVS)” value (at 75% relative humidity (RH) at 25° C., FIG. 6)?
Answer: 4-6%

Question: With `CCN(c1cc(-c2ccc(CN3CCOCC3)cc2)cc(C(=O)NCc2c(C)cc(C)[nH]c2=O)c1C)C1CCOCC1.Cl` [Polymorph C, 4-((3′-(((4,6-Dimethyl-2-oxo-1,2-dihydropyridin-3-yl)methyl)carbamoyl)-5′-(ethyl(tetrahydro-2H-pyran-4-yl)amino)-4′-methyl-[1,1-biphenyl]-4-yl)methyl)morpholin-4-ium chloride] as the compound, how does the “hygroscopicity (DVS, in words)” value read?
Answer: non-hygroscopic

Question: What about the “weight increase (DVS)” value (upon increasing relative humidity from 5.0% to 95.0%, FIG. 5) of the same compound?
Answer: less than 1.5%
